Test results reported in ChEMBL document CHEMBL1135234, “2-Arylindoles as gonadotropin releasing hormone (GnRH) antagonists: optimization of the tryptamine side chain” (Bioorg Med Chem Lett, 2002).
Values joined by “and” are separate entries in the source; they are usually repeats but may differ in a detail not shown here. Equal entries are not always repeated.

Key:
[1] = molecular target: T1, Gonadotropin-releasing hormone receptor (Homo sapiens, UniProt P30968); assay: Inhibition of [125I]buserelin binding to human pituitary gonadotropin-releasing hormone receptor
T1 sequence (P30968 whole entry): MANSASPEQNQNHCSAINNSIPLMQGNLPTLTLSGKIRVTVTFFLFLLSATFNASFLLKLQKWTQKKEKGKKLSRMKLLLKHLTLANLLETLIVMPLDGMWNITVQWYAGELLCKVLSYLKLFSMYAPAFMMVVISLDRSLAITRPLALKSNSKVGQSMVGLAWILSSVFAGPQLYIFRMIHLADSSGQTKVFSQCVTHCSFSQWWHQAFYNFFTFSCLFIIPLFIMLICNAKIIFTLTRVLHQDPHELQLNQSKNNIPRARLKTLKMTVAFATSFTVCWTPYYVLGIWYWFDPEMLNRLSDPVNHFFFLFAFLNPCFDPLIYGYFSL

[2] = molecular target: T1, Gonadotropin-releasing hormone receptor; assay: Inhibition of gonadotropin-releasing hormone receptor-stimulated [3H]inositol phosphate hydrolysis; assay type: functional
Cytochrome P450 3A4 [3] = molecular target: T2, Cytochrome P450 3A4 (Homo sapiens, UniProt P08684); assay: Inhibition of cytochrome P450 3A4 enzyme
T2 sequence (P08684 whole entry): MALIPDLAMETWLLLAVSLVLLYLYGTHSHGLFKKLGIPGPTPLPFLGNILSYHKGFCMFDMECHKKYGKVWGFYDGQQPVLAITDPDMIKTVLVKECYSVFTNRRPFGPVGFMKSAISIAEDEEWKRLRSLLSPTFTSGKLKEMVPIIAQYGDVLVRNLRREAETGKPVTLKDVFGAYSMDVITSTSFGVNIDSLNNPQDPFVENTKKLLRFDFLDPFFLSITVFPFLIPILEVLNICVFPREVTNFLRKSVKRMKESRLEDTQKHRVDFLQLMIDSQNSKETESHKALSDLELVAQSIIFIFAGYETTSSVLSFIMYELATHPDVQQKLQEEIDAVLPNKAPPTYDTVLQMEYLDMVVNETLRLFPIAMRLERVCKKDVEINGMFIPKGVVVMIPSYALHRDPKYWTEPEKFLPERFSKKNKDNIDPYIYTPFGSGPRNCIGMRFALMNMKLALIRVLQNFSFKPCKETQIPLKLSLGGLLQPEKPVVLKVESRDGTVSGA

[4] = (§1) Oral bioavailability in dog; assay type: ADME, organism-based, Canis lupus familiaris; details: in vivo
Canis familiaris [5] = assay: as §1; assay type: ADME, organism-based, Canis lupus familiaris; details: in vivo
[6] = Plasma clearance in dog was determined; assay type: ADME, organism-based, Canis lupus familiaris; details: read-out: Clp
[7] = Half life in dog was determined; assay type: ADME, organism-based, Canis lupus familiaris; details: in vivo
Cytochrome P450 3A4 [8] = molecular target: T2, Cytochrome P450 3A4; assay: Inhibition of cytochrome P450 3A4 enzyme; Range 1-2 uM; assay type: ADME
Canis familiaris [9] = assay: Compound was tested for the oral bioavailability in dog; No availability; assay type: ADME, organism-based, Canis lupus familiaris; details: in vivo
[10] = molecular target: T1, Gonadotropin-releasing hormone receptor; assay: Compound was evaluated for the inhibition of Gonadotropin-releasing hormone receptor-stimulated [3H]inositol phosphate hydrolysis using functional assay

Compound	IC50 [1] [nM]	IC50 [2] [nM]	further results
Cc1cc(C)cc(-c2[nH]c3ccc(C(C)(C)C(=O)N4C5CCC4CC5)cc3c2[C@H](C)CNCCCCc2ccc3cnccc3c2)c1	3.6	5.8	
Cc1cc(C)cc(-c2[nH]c3ccc(C(C)(C)C(=O)N4C5CCC4CC5)cc3c2[C@H](C)CNCCc2ccc3nc[nH]c3c2)c1	0.4	2.6	
Cc1cc(C)cc(-c2[nH]c3ccc(C(C)(C)C(=O)N4C5CCC4CC5)cc3c2[C@H](C)CNCCCCc2cncc3ccccc23)c1	2.1	10.2	
Cc1cc(C)cc(-c2[nH]c3ccc(C(C)(C)C(=O)N4C5CCC4CC5)cc3c2[C@H](C)CNCCCCc2ccnc3nc(C)ccc23)c1	0.6	8.4	
Cc1cc(C)cc(-c2[nH]c3ccc(C(C)(C)C(=O)N4C5CCC4CC5)cc3c2[C@H](C)CNCCCCc2cccc3ncccc23)c1	1.9	46.4	
Cc1cc(C)cc(-c2[nH]c3ccc(C(C)(C)C(=O)N4CC5CCC4CC5)cc3c2[C@H](C)CNCCc2ccc3nc[nH]c3c2)c1	0.3	4.5	IC50 (Cytochrome P450 3A4 [3]): 100 nM; bioavailability [4]: 63%
Cc1cc(C)cc(-c2[nH]c3ccc(C(C)(C)C(=O)N4C5CCC4CC5)cc3c2[C@H](C)CNCCCCc2ccncc2)c1			F (Canis familiaris [5]): 23% and 11%; clearance [6]: 26.5 mL/min/kg; half-life [7]: 9.5 h
Cc1cc(C)cc(-c2[nH]c3ccc(C(C)(C)C(=O)N4C5CCC4CC5)cc3c2[C@H](C)CNCCCc2cnc3nccnc3c2)c1	0.8	10.9	
Cc1cc(C)cc(-c2[nH]c3ccc(C(C)(C)C(=O)N4C5CCC4CC5)cc3c2[C@H](C)CNCCCc2ccc3ncccc3c2)c1	3	17.8	
Cc1cc(C)cc(-c2[nH]c3ccc(C(C)(C)C(=O)N4C5CCC4CC5)cc3c2[C@H](C)CNCCCCc2cnc3nccnc3c2)c1	0.4	7.9	
Cc1cc(C)cc(-c2[nH]c3ccc(C(C)(C)C(=O)N4C5CCC4CC5)cc3c2[C@H](C)CNCCCc2cccc3cnccc23)c1	0.9	5	
Cc1cc(C)cc(-c2[nH]c3ccc(C(C)(C)C(=O)N4C5CCC4CC5)cc3c2[C@H](C)CNCCCc2cncc3ccccc23)c1	2.1	7.5	
Cc1cc(C)cc(-c2[nH]c3ccc(C(C)(C)C(=O)N4C5CCC4CC5)cc3c2[C@H](C)CNCCc2c[nH]c3ncnc-3c2)c1	0.4	2.5	
Cc1cc(C)cc(-c2[nH]c3ccc(C(C)(C)C(=O)N4C5CCC4CC5)cc3c2[C@H](C)CNCCc2ccc3ncoc3c2)c1	0.4	2	IC50 (Cytochrome P450 3A4 [8]): 1000 nM
Cc1cc(C)cc(-c2[nH]c3ccc(C(C)(C)C(=O)N4C5CCC4CC5)cc3c2[C@H](C)CNCCCc2ccnc3nc(C)ccc23)c1	1.1	16.2	
Cc1cc(C)cc(-c2[nH]c3ccc(C(C)(C)C(=O)N4CC5CCC4CC5)cc3c2[C@H](C)CNCCc2ccc3ncoc3c2)c1	0.6	3.9	
Cc1cc(C)cc(-c2[nH]c3ccc(C(C)(C)C(=O)N4CC5CCC4CC5)cc3c2[C@H](C)CNCCc2ccc3[nH]c(C(F)(F)F)nc3c2)c1	0.9	101	IC50 (Cytochrome P450 3A4 [3]): > 10000 nM
Cc1cc(C)cc(-c2[nH]c3ccc(C(C)(C)C(=O)N4CC5CCC4CC5)cc3c2[C@H](C)CNCCc2ccc3[nH]c(CO)nc3c2)c1	0.7	5	
Cc1cc(C)cc(-c2[nH]c3ccc(C(C)(C)C(=O)N4CC5CCC4CC5)cc3c2[C@H](C)CNCCc2ccc3[nH]ncc3c2)c1	1.1	1.5	
Cc1cc(C)cc(-c2[nH]c3ccc(C(C)(C)C(=O)N4C5CCC4CC5)cc3c2[C@H](C)CNCc2cccc3ncccc23)c1 (stereo in doubt; 27b)	15.3	315	

Compound	IC50 [1] [nM]	IC50 [2] [nM]	further results
Cc1cc(C)cc(-c2[nH]c3ccc(C(C)(C)C(=O)N4CC5CCC4CC5)cc3c2[C@H](C)CNCCc2cnc3nn[nH]c3c2)c1	0.6	2.8	
Cc1cc(C)cc(-c2[nH]c3ccc(C(C)(C)C(=O)N4CC5CCC4CC5)cc3c2[C@H](C)CNCCc2c[nH]c3ncnc-3c2)c1	0.3	4.5	IC50 (Cytochrome P450 3A4 [3]): 4000 nM; bioavailability [4]: 16%
Cc1cc(C)cc(-c2[nH]c3ccc(C(C)(C)C(=O)N4C5CCC4CC5)cc3c2[C@H](C)CNCCCc2ccc3cnccc3c2)c1	0.7	4.6	
Cc1cc(C)cc(-c2[nH]c3ccc(C(C)(C)C(=O)N4CC5CCC4CC5)cc3c2[C@H](C)CNCCc2ccc3nc(C(=O)O)[nH]c3c2)c1	0.4	6.5	F (Canis familiaris [9]): Not Active; clearance [6]: 24.6 mL/min/kg
Cc1cc(C)cc(-c2[nH]c3ccc(C(C)(C)C(=O)N4C5CCC4CC5)cc3c2[C@H](C)CNCCCCc2cnc3nc[nH]c3c2)c1	0.4	4.6	
Cc1cc(C)cc(-c2[nH]c3ccc(C(C)(C)C(=O)N4CC5CCC4CC5)cc3c2[C@H](C)CNCCc2ccc3nsnc3c2)c1	0.5	11.4	IC50 (Cytochrome P450 3A4 [8]): 1000 nM
Cc1cc(C)cc(-c2[nH]c3ccc(C(C)(C)C(=O)N4C5CCC4CC5)cc3c2[C@H](C)CNCc2cccc3ncccc23)c1 (stereo in doubt; 27a)	27.5	420	
Cc1cc(C)cc(-c2[nH]c3ccc(C(C)(C)C(=O)N4CC5CCC4CC5)cc3c2[C@H](C)CNCc2ccc3nc[nH]c3c2)c1	16.5	43.9	
Cc1cc(C)cc(-c2[nH]c3ccc(C(C)(C)C(=O)N4C5CCC4CC5)cc3c2[C@H](C)CNCCc2ccc3[nH]c(C)nc3c2)c1	0.4	13	IC50 (Cytochrome P450 3A4 [3]): 5000 nM
Cc1cc(C)cc(-c2[nH]c3ccc(C(C)(C)C(=O)N4C5CCC4CC5)cc3c2[C@H](C)CNCCCc2cccc3ncccc23)c1	2.4	131	
Cc1cc(C)cc(-c2[nH]c3ccc(C(C)(C)C(=O)N4C5CCC4CC5)cc3c2[C@H](C)CNCCc2ccc3[nH]nnc3c2)c1	0.6	2	bioavailability [4]: 37%; clearance [6]: 37 mL/min/kg; half-life [7]: 2.7 h
Cc1cc(C)cc(-c2[nH]c3ccc(C(C)(C)C(=O)N4CC5CCC4CC5)cc3c2[C@H](C)CNCCc2ccc3nn[nH]c3c2)c1	0.3	2.5	bioavailability [4]: 20%; clearance [6]: 5 mL/min/kg; half-life [7]: 7.2 h
COC(=O)c1nc2ccc(CCNC[C@@H](C)c3c(-c4cc(C)cc(C)c4)[nH]c4ccc(C(C)(C)C(=O)N5CC6CCC5CC6)cc34)cc2[nH]1	0.3	7.6	
Cc1cc(C)cc(-c2[nH]c3ccc(C(C)(C)C(=O)N4C5CCC4CC5)cc3c2[C@H](C)CNCCCCc2cccc3cnccc23)c1	1.5	6.8	bioavailability [4]: 4%; clearance [6]: 49.2 mL/min/kg; half-life [7]: 1 h
Cc1cc(C)cc(-c2[nH]c3ccc(C(C)(C)C(=O)N4CC5CCC4CC5)cc3c2[C@H](C)CNCCc2ccc3[nH]c(=O)[nH]c3c2)c1	0.6		bioavailability [4]: 5%; IC50 [10]: 2 nM
Cc1cc(C)cc(-c2[nH]c3ccc(C(C)(C)C(=O)N4C5CCC4CC5)cc3c2[C@H](C)CNCCCCc2ccc3ncccc3c2)c1	1.1	11.5	
Cc1cc(C)cc(-c2[nH]c3ccc(C(C)(C)C(=O)N4CC5CCC4CC5)cc3c2[C@H](C)CNCCc2ccc3[nH]c(=O)[nH]c3c2F)c1	0.7	27.9	
Cc1cc(C)cc(-c2[nH]c3ccc(C(C)(C)C(=O)N4C5CCC4CC5)cc3c2[C@H](C)CNCCc2ccc3ocnc3c2)c1	0.3	9	
Cc1cc(C)cc(-c2[nH]c3ccc(C(C)(C)C(=O)N4C5CCC4CC5)cc3c2[C@H](C)CNCCc2cccc3cnccc23)c1	0.6	34.7	bioavailability [4]: 10%; IC50 (Cytochrome P450 3A4 [8]): 1000 nM; clearance [6]: 5.8 mL/min/kg; half-life [7]: 1.9 h
